According to the supplement of paper PMC10307832:

Legend:
Experiment in all cases: relative viability (nuclei count vs DMSO), 5 days (fraction); higher = more cells survive
Venetoclax + Bortezomib = compound: CC1(C)CCC(CN2CCN(c3ccc(C(=O)NS(=O)(=O)c4ccc(NCC5CCOCC5)c([N+](=O)[O-])c4)c(Oc4cnc5[nH]ccc5c4)c3)CC2)=C(c2ccc(Cl)cc2)C1 [Venetoclax] + CC(C)C[C@H](NC(=O)[C@H](Cc1ccccc1)NC(=O)c1cnccn1)B(O)O [Bortezomib] (partner 0.002 µM)
Summary of the method: (§1)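 Lung cancer cell lines in 1536-well plates were dosed by pin tool the day after seeding, either with one drug alone or with a fixed anchor-drug dose plus five library-drug doses (not always all listed) in √10 steps. After 5 days, cells were fixed and their nuclei stained in one step (final 0.05% Triton X-100, 1% formaldehyde, 1 ug/ml Hoechst), then counted on 4× images. Relative viability is the nuclei count in treated wells divided by that in vehicle wells. Values are medians of duplicate plates.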

Venetoclax + Vorinostat = compound: CC1(C)CCC(CN2CCN(c3ccc(C(=O)NS(=O)(=O)c4ccc(NCC5CCOCC5)c([N+](=O)[O-])c4)c(Oc4cnc5[nH]ccc5c4)c3)CC2)=C(c2ccc(Cl)cc2)C1 [Venetoclax] + O=C(CCCCCCC(=O)Nc1ccccc1)NO [Vorinostat] (partner 1 µM)
Summary of the method: as §1

Selumetinib + Phenformin = compound: Cn1cnc2c(F)c(Nc3ccc(Br)cc3Cl)c(C(=O)NOCCO)cc21 [Selumetinib] + N=C(N)NC(=N)NCCc1ccccc1 [Phenformin] (partner 250 µM)
Summary of the method: as §1

Selumetinib + AZD7762 = compound: Cn1cnc2c(F)c(Nc3ccc(Br)cc3Cl)c(C(=O)NOCCO)cc21 [Selumetinib] + NC(=O)Nc1cc(-c2cccc(F)c2)sc1C(=O)N[C@H]1CCCNC1 [AZD7762] (partner 0.2 µM)
Summary of the method: as §1

Cell Line	relative viability (Venetoclax + Bortezomib; first compound 0.01 µM)	relative viability (Venetoclax + Bortezomib; first compound 0.03162 µM)	relative viability (Venetoclax + Bortezomib; first compound 0.1 µM)	relative viability (Venetoclax + Bortezomib; first compound 0.3162 µM)	relative viability (Venetoclax + Bortezomib; first compound 1 µM)	relative viability (Venetoclax + Vorinostat; first compound 0.01 µM)	relative viability (Venetoclax + Vorinostat; first compound 0.03162 µM)	relative viability (Venetoclax + Vorinostat; first compound 0.1 µM)	relative viability (Venetoclax + Vorinostat; first compound 0.3162 µM)	relative viability (Venetoclax + Vorinostat; first compound 1 µM)	relative viability (Selumetinib + Phenformin; first compound 0.02 µM)	relative viability (Selumetinib + Phenformin; first compound 0.06325 µM)	relative viability (Selumetinib + Phenformin; first compound 0.2 µM)	relative viability (Selumetinib + Phenformin; first compound 0.6325 µM)	relative viability (Selumetinib + AZD7762; first compound 0.02 µM)	relative viability (Selumetinib + AZD7762; first compound 0.06325 µM)	relative viability (Selumetinib + AZD7762; first compound 0.2 µM)	relative viability (Selumetinib + AZD7762; first compound 0.6325 µM)
NCI-H1755	0.993	1.01	0.911	0.965	0.943	0.751	0.801	0.774	0.739	0.741	0.628	0.594	0.584	0.53	0.522	0.352	0.393	0.451
LOU-NH91	0.487	0.477	0.558	0.473	0.456	0.868	1.05	0.916	1.03	0.874	0.674	0.69	0.688	0.661	0.754	0.758	0.696	0.733
BEN	0.61	1.06	0.868	0.837	0.749	0.599	0.603	0.494	0.556	0.523	0.281	0.315	0.252	0.257	0.587	0.624	0.634	0.736
NCI-H1734	0.815	1.07	0.921	0.946	0.914	0.613	0.876	0.711	0.761	0.76	0.351	0.298	0.345	0.248	0.512	0.5	0.495	0.515
LCLC-103H	1.02	1.04	1.16	1.09	1.1	0.866	0.92	0.648	0.825	0.737	0.329	0.326	0.293	0.337	0.722	0.761	0.749	0.64
ChaGo-K-1	1.08	1.11		1.08	0.926	0.879	0.759	0.546	0.694	0.737	0.484	0.555	0.465	0.461	0.865	0.845	0.905	0.899
NCI-H2405	0.956	1.09	0.94	0.982	0.907	0.944	1.27	1.03	1.07	0.889	0.344	0.319	0.296	0.164	0.729	0.492	0.561	0.466
HCC-44	0.85	0.93	0.948	0.829	0.904	1.05	1.14	1.08	1.1	1	0.179	0.187	0.209	0.184	1.07	1.08	1.02	1.16
